Data on six compounds can be found in ChEMBL document CHEMBL1201862, “PubChem BioAssay data set” (2004).

Test systems include A498; ACHN; IGROV-1; M14; MCF7; Malme-3M; NCI/ADR-RES; PC-3; SK-MEL-28; SK-MEL-2; SW-620; TK-10; DLD-1; HOP-18; KM-20L2; NCI-H226; SNB-75; SR.
Holding throughout (assay): DTP human tumour cell line panel, 48 h

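All cell lines were grown in 96-well plates and treated with compound for 48 hours. GI50 marks 50% less growth.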 The source made the active and inactive calls. Cut-off read from the data, not from the text of the source: active = GI50 up to about 1.1 µM and inactive = higher. Where only a bound is given, the exact number is not on record here.

In the case of `Oc1ccc(Cl)cc1C1=Nn2c(COc3ccc4c(c3)CCCC4)nnc2SC1`, the GI50 (usually the concentration that inhibits growth by half) is 1.49 µM (inactive) in the assay with A498; 15.4 µM (inactive) in the assay with ACHN; 11.6 µM (inactive) with IGROV-1; 14.2 µM (inactive) in the assay on M14; 14.7 µM (inactive) in the assay with MCF7; > 100 µM (inactive) in the assay with Malme-3M. Moreover, the GI50 was 14.8 µM (inactive) with NCI/ADR-RES; 10.6 µM (inactive) in the assay on PC-3; 0.129 µM (active) with SK-MEL-28; 15.4 µM (inactive) in the assay with SK-MEL-2; 16.8 µM (inactive) with SW-620; 4.72 µM (inactive) with TK-10.
Consider `CC(C)=CCc1c(O)ccc2ccc(=O)oc12` [OSTHENOL], for which the GI50 is 54.8 µM (inactive) with A498; > 100 µM (inactive) in the assay on DLD-1; 43.6 µM (inactive) in the assay on HOP-18; > 68.5 µM (inactive) in the assay with IGROV-1; > 100 µM (inactive) in the assay with KM-20L2; 34.9 µM (inactive) in the assay with MCF7. Moreover, the GI50 with Malme-3M was 38.2 µM (inactive); in the assay with NCI-H226, 47.6 µM (inactive); in the assay with NCI/ADR-RES it was 20.9 µM (inactive); in the assay on SK-MEL-28, 49.4 µM (inactive); in the assay with SK-MEL-2, 45.7 µM (inactive); with SNB-75, 54.5 µM (inactive). For the same compound, in the assay on SW-620, the GI50 is > 100 µM (inactive).
In the case of `COC(=O)[C@@H](O)[C@](O)(CCC(C)C)C(=O)O[C@@H]1C(OC)=C[C@]23CCCN2CCc2cc4c(cc2[C@H]13)OCO4`, the GI50 was 1.48 µM (inactive) in the assay on A498; 1 µM (active) in the assay on DLD-1; 2.46 µM (inactive) in the assay on HOP-18; 1.07 µM (active) in the assay on IGROV-1; 1.5 µM (inactive) in the assay with KM-20L2; 0.351 µM (active) with MCF7. The concentration for 50% growth inhibition (GI50) in the assay on Malme-3M is 0.459 µM (active); with NCI-H226 it was 1.64 µM (inactive); in the assay with NCI/ADR-RES it was 11.8 µM (inactive); in the assay with SK-MEL-28, 0.518 µM (active); in the assay on SK-MEL-2, 2.19 µM (inactive); with SNB-75, 1.62 µM (inactive). In the assay with SW-620, the GI50 is 2.21 µM (inactive).
On to `COc1ccc(C2C(=O)C(Cl)N2Nc2nc(C)cc(O)n2)cc1OC` (configuration not stated), for which the GI50 in the assay with ACHN was 19.4 µM (inactive); with HOP-18 it was 6.41 µM (inactive); in the assay on IGROV-1, 10.9 µM (inactive); in the assay with KM-20L2, 37 µM (inactive); in the assay with M14, 25.8 µM (inactive); in the assay on SK-MEL-28, 43.3 µM (inactive). Further, the GI50 is 22.6 µM (inactive) with SK-MEL-2; 8.13 µM (inactive) in the assay on SNB-75; 18.8 µM (inactive) in the assay on SR; 45.3 µM (inactive) in the assay on SW-620; 43.6 µM (inactive) with TK-10.
As for `O=C1OC(c2ccccc2)=N/C1=C\c1cccnc1`, the GI50 with ACHN, in the assay on IGROV-1, in the assay on M14, with MCF7, in the assay on NCI-H226 and in the assay on NCI/ADR-RES was > 100 µM (inactive) throughout. Besides, the GI50 in the assay with PC-3 is > 100 µM (inactive); with SK-MEL-28, > 100 µM (inactive); in the assay with SK-MEL-2 it was > 100 µM (inactive); in the assay with SNB-75, > 100 µM (inactive); in the assay with SR, 33 µM (inactive); with SW-620, > 100 µM (inactive). For the same compound, the GI50 with TK-10 is > 100 µM (inactive).
Take `CCOC(=O)c1c(NC(=S)NCc2ccccc2)sc2c1CCN(C)C2`: the GI50 is 59.6 µM (inactive) with A498; 89.5 µM (inactive) in the assay with ACHN; 33 µM (inactive) in the assay with IGROV-1; > 100 µM (inactive) in the assay on M14; 52.6 µM (inactive) in the assay with MCF7; > 100 µM (inactive) with NCI-H226. The GI50 in the assay on NCI/ADR-RES was > 100 µM (inactive); with PC-3, 35.4 µM (inactive); in the assay with SK-MEL-2, 39.5 µM (inactive); with TK-10, 64.9 µM (inactive).
